Here are results for four compounds from paper PMC3118479 (Bioorganic & medicinal chemistry, 2011).

Molecules are shown by their SMILES.

The target of test [1] is human D2(long) (Homo sapiens, UniProt P14416). Kind of test: Competitive radioligand binding at D2 dopamine receptor with 125I-IABN. Conditions: for D3:D2: Ki for D3 receptors/Ki for D2 receptors; for D4:D2: Ki for D4 receptors/Ki for D2 receptors.
In test [2] the target is human D3 (Homo sapiens, UniProt P35462). Kind of test: Competitive radioligand binding at D3 dopamine receptor with 125I-IABN. Conditions: relative to aripiprazole.
The target of test [3] is T1, human D4 (Homo sapiens, UniProt P21917).
T1 sequence (P21917 1-419): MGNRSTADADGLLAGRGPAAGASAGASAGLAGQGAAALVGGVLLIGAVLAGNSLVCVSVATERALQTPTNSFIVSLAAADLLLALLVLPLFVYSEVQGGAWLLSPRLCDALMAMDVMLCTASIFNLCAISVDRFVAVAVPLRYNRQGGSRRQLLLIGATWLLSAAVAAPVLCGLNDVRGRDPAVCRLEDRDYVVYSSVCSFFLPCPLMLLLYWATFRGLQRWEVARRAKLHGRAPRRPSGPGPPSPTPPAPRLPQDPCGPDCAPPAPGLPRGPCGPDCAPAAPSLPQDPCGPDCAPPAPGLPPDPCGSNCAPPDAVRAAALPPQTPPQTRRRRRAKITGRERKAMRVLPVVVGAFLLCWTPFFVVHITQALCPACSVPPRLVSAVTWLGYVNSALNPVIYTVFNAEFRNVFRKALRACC
The test is classed as binding. Conditions: human D4 expressed in HEK cells, [125I]ABN radioligand; mean ± SEM, at least three experiments.

For test [4], the target named is human D2 receptors (Homo sapiens, UniProt P14416). Kind of test: Whole cell forskolin-dependent adenylyl cyclase inhibition assay, D2L HEK cells. The test is classed as cell-based.
human D2 receptors, sequence (P14416 whole entry): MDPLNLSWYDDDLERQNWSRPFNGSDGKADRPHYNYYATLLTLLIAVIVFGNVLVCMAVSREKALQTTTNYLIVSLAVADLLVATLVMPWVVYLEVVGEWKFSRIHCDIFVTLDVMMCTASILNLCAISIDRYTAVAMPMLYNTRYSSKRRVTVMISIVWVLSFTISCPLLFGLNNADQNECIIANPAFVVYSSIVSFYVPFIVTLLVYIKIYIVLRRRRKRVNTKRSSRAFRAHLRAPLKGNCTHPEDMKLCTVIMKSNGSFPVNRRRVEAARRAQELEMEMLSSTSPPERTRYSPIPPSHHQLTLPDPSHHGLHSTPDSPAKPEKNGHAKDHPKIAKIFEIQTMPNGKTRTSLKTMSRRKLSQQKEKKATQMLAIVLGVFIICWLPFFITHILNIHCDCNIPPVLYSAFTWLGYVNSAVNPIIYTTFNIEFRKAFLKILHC

human D2(long), sequence (P14416 whole entry): as above
human D3, sequence (P35462 whole entry): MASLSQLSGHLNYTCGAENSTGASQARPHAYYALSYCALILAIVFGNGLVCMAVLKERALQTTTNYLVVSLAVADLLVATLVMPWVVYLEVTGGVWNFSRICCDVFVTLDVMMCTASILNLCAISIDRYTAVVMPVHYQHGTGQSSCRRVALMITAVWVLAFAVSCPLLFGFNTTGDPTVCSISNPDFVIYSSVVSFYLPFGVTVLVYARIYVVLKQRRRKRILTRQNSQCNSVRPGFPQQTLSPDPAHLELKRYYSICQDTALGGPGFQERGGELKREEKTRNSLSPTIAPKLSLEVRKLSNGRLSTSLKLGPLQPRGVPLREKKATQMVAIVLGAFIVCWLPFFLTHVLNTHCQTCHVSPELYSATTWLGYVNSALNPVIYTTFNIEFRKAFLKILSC

On to `O=C(O)C(=O)O.O=C1CCc2ccc(OCCCCN3CCC(n4c(=O)[nH]c5ccccc54)CC3)cc2N1` [Compound 3, 7-(4-(4-(2-Oxo-2,3-dihydro-1H-benzo[d]imidazol-1-yl)-piperidin-1-yl)butoxy)-3,4-dihydroquinolin-2(1H)-one oxalate], for which, in test [1], the “D3:D2” value was found to be 6.1 and the “D4:D2” value is given as 7.1.
For `O=C(O)C(=O)O.O=C1CCc2ccc(OCCCCN3CCC(n4c(=O)[nH]c5cc(Cl)ccc54)CC3)cc2N1` [Compound 4, 7-(4-(4-(5-Chloro-2-oxo-2,3-dihydro-1H-benzo[d]imidazol-1-yl)piperidin-1-yl)butoxy)-3,4-dihydroquinolin-2(1H)-one oxalate], in test [1], the “D3:D2” value is on record as 1.9 and the “D4:D2” value is reported as 4.4.
In the case of `CN1CN(c2ccccc2)C2(CCN(CCCCOc3ccc4c(c3)NC(=O)CC4)CC2)C1=O.O=C(O)C(=O)O` [Compound 5, 7-(4-(3Methyl-4-oxo-1-phenyl-1,3,8-triazaspiro[4.5]decan-8-yl)butoxy)-3,4-dihydro-quinolin-2(1H)-one oxalate], in test [1], the “D3:D2” value was 0.7 and the “D4:D2” value worked out at 1.4.
Regarding `O=C(O)C(=O)O.O=C1CCc2ccc(OCCCCN3CCN(c4ccccc4OCCF)CC3)cc2N1` [Compound 7, 7-(4-(4-(2-(2-Fluoroethoxy)phenyl)piperazin-1-yl)butoxy)-3,4-dihydroquinolin-2(1H)-one oxalate], in test [2], the “decrease in affinity at D3 receptors” value was 2 fold. In test [3], the “Ki D4” value is listed as “low affinity”. In addition, in test [1] (relative to aripiprazole), the “increase in affinity at D2 receptors” value was determined as 12 fold. Also, the “intrinsic efficacy greater at D2 receptors compared to D3 receptors” value in test [4] is on record as 16–75%.
